The values below come from ChEMBL document CHEMBL4665840, “New antibacterial cadiolide analogues active against antibiotic-resistant strains” (Bioorg Med Chem Lett, 2020).

In brackets after ≈: the same amount, converted by molar mass. A value given as a limit tells only on which side of the number the result lay.

One data set deals with Micrococcus luteus. In words: Antibacterial activity against Micrococcus luteus. Type of data set: functional.
In data set [1] the test system is Enterococcus faecalis. The experiment in a line: Antibacterial activity against Enterococcus faecalis NCTC12697. Type of data set: functional.
A further data set relates to Bacillus cereus. The experiment in a line: Antibacterial activity against Bacillus cereus. Type of data set: functional.
The subject of data set [2] is Staphylococcus aureus. In words: Antibacterial activity against Staphylococcus aureus EMRSA17. Type of data set: functional.
Data set [3] has as its system Staphylococcus aureus. The experiment in a line: Antibacterial activity against Staphylococcus aureus NCTC12493.
For data set [4], the system named is Enterococcus faecalis. The experiment in a line: Antibacterial activity against vancomycin-resistant Enterococcus faecalis. Type of data set: functional.
A further data set concerns Bacillus subtilis. The experiment in a line: Antibacterial activity against Bacillus subtilis. Type of data set: functional.
Data set [5] relates to HaCaT. The experiment in a line: Cytotoxicity against human HaCaT cells at 160 ug/ml incubated for 24 hrs by LDH release assay. Type of data set: cell-based. The conditions noted are these: dose 160 µg/ml. In general terms: Release of lactate dehydrogenase indicates damage to the cell membrane.
Data set [6] relates to HaCaT. In words: Cytotoxicity against human HaCaT cells at 160 ug/ml incubated for 24 hrs by LDH release assay (reference value: 23.7 +/- 1.4%). Type of data set: cell-based. The conditions noted are these: at 160 µg/mL.

What is called MIC is the least concentration at which growth counts as inhibited. A lower MIC goes with greater potency.

For `O=C1O/C(=C\c2cc(Br)c(O)c(Br)c2)C(c2cc(Br)c(O)c(Br)c2)=C1C(=O)c1ccco1`, the MIC against Micrococcus luteus was 32 µg/mL (≈ 46.4 µM); against Enterococcus faecalis [1] it was 128 µg/mL (≈ 186 µM); with Bacillus cereus, 16 µg/mL (≈ 23.2 µM); against Staphylococcus aureus [2], 64 µg/mL (≈ 92.8 µM); in the data set on Staphylococcus aureus [3] it was 32 µg/mL (≈ 46.4 µM); against Enterococcus faecalis [4] it was 64 µg/mL (≈ 92.8 µM). The compound further returned an MIC in the data set with Bacillus subtilis of 32 µg/mL (≈ 46.4 µM).

For `O=C1O/C(=C\c2ccc(O)c(Br)c2)C(c2ccc(O)c(Br)c2)=C1C(=O)c1ccc(O)c(Br)c1`, the MIC with Micrococcus luteus amounted to 8 µg/mL (≈ 12.6 µM); against Enterococcus faecalis [1], 16 µg/mL (≈ 25.1 µM); against Bacillus cereus, 8 µg/mL (≈ 12.6 µM); against Staphylococcus aureus [2], 8 µg/mL (≈ 12.6 µM); with Staphylococcus aureus [3] it was 8 µg/mL (≈ 12.6 µM); against Enterococcus faecalis [4], 32 µg/mL (≈ 50.2 µM). Also, the MIC in the data set on Bacillus subtilis was 16 µg/mL (≈ 25.1 µM). Moreover, the Activity entry in the data set with HaCaT [5] is “Non-Toxic”.

With `O=C1O/C(=C\c2ccc(O)c(Br)c2)C(c2cc(Br)c(O)c(Br)c2)=C1C(=O)c1cc(Br)c(O)c(Br)c1` [CADIOLIDE D], the MIC against Micrococcus luteus came out at 64 µg/mL (≈ 80.5 µM); in the data set on Enterococcus faecalis [1], 64 µg/mL (≈ 80.5 µM); with Bacillus cereus, 32 µg/mL (≈ 40.3 µM); with Staphylococcus aureus [2], 64 µg/mL (≈ 80.5 µM); in the data set with Staphylococcus aureus [3], 32 µg/mL (≈ 40.3 µM); in the data set on Enterococcus faecalis [4] it was 64 µg/mL (≈ 80.5 µM). This compound also registered an MIC against Bacillus subtilis of 64 µg/mL (≈ 80.5 µM).

Turning to `O=C1O/C(=C\c2cccs2)C(c2cc(Br)c(O)c(Br)c2)=C1C(=O)c1cc(Br)c(O)c(Br)c1`, the MIC amounted to 128 µg/mL (≈ 181 µM) in the data set on Micrococcus luteus; 64 µg/mL (≈ 90.7 µM) against Enterococcus faecalis [1]; 64 µg/mL (≈ 90.7 µM) against Bacillus cereus; 256 µg/mL (≈ 363 µM) against Staphylococcus aureus [2]; 32 µg/mL (≈ 45.3 µM) in the data set with Staphylococcus aureus [3]; 32 µg/mL (≈ 45.3 µM) in the data set on Enterococcus faecalis [4]. Inhibition of growth with Bacillus subtilis (MIC) required 32 µg/mL (≈ 45.3 µM).

In the case of `O=C1O/C(=C\c2ccco2)C(c2ccco2)=C1C(=O)c1cc(Br)c(O)c(Br)c1`, the MIC in the data set with Micrococcus luteus amounted to 32 µg/mL (≈ 63.2 µM); in the data set on Enterococcus faecalis [1] it was 64 µg/mL (≈ 126 µM); against Bacillus cereus, 16 µg/mL (≈ 31.6 µM); against Staphylococcus aureus [2], 64 µg/mL (≈ 126 µM); in the data set on Staphylococcus aureus [3], 16 µg/mL (≈ 31.6 µM); against Enterococcus faecalis [4], 64 µg/mL (≈ 126 µM). This compound had an MIC in the data set with Bacillus subtilis of 32 µg/mL (≈ 63.2 µM).

With `O=C1O/C(=C\c2ccco2)C(c2ccc(O)c(Br)c2)=C1C(=O)c1ccc(O)c(Br)c1`, the minimum inhibitory concentration (MIC) against Micrococcus luteus stood at 32 µg/mL (≈ 60.1 µM); against Enterococcus faecalis [1] it was 128 µg/mL (≈ 241 µM); in the data set with Bacillus cereus it was 32 µg/mL (≈ 60.1 µM); against Staphylococcus aureus [2], 64 µg/mL (≈ 120 µM); in the data set with Staphylococcus aureus [3], 32 µg/mL (≈ 60.1 µM); against Enterococcus faecalis [4], 128 µg/mL (≈ 241 µM). In the data set on Bacillus subtilis, inhibition of growth (MIC) required 32 µg/mL (≈ 60.1 µM).

With `O=C1O/C(=C\c2c[nH]c3ccccc23)C(c2ccc(O)c(Br)c2)=C1C(=O)c1ccc(O)c(Br)c1`, the MIC with Micrococcus luteus stood at 8 µg/mL (≈ 13.8 µM); against Enterococcus faecalis [1], 8 µg/mL (≈ 13.8 µM); against Bacillus cereus it was 4 µg/mL (≈ 6.88 µM); against Staphylococcus aureus [2], 4 µg/mL (≈ 6.88 µM); in the data set on Staphylococcus aureus [3], 2 µg/mL (≈ 3.44 µM); against Enterococcus faecalis [4], 8 µg/mL (≈ 13.8 µM). The compound further registered an MIC with Bacillus subtilis of 8 µg/mL (≈ 13.8 µM). The Activity entry in the data set on HaCaT [5] was “Non-Toxic”.

With `O=C1O/C(=C\c2ccco2)C(c2cc(Br)c(O)c(Br)c2)=C1C(=O)c1ccco1`, the MIC in the data set with Micrococcus luteus is 256 µg/mL (≈ 506 µM); against Enterococcus faecalis [1], 256 µg/mL (≈ 506 µM); in the data set on Bacillus cereus, 128 µg/mL (≈ 253 µM); in the data set on Staphylococcus aureus [2], 128 µg/mL (≈ 253 µM); with Staphylococcus aureus [3] it was 64 µg/mL (≈ 126 µM); with Enterococcus faecalis [4], 256 µg/mL (≈ 506 µM). The compound further showed an MIC in the data set with Bacillus subtilis of 256 µg/mL (≈ 506 µM).

`O=C1O/C(=C\c2ccc(O)c(Br)c2)C(c2ccc(O)c(Br)c2)=C1C(=O)c1cccs1`: the MIC is 8 µg/mL (≈ 14.6 µM) in the data set with Micrococcus luteus; 32 µg/mL (≈ 58.4 µM) with Enterococcus faecalis [1]; 4 µg/mL (≈ 7.3 µM) in the data set on Bacillus cereus; 16 µg/mL (≈ 29.2 µM) in the data set with Staphylococcus aureus [2]; 8 µg/mL (≈ 14.6 µM) in the data set on Staphylococcus aureus [3]; 32 µg/mL (≈ 58.4 µM) with Enterococcus faecalis [4]. In the data set with Bacillus subtilis, this compound displayed an MIC of 8 µg/mL (≈ 14.6 µM).

As for `Cn1cc(/C=C2\OC(=O)C(C(=O)c3ccc(O)c(Br)c3)=C2c2ccc(O)c(Br)c2)c2ccccc21`, the MIC in the data set with Micrococcus luteus is 2 µg/mL (≈ 3.36 µM); in the data set with Enterococcus faecalis [1], 16 µg/mL (≈ 26.9 µM); against Bacillus cereus, 2 µg/mL (≈ 3.36 µM); against Staphylococcus aureus [2] it was 8 µg/mL (≈ 13.4 µM); against Staphylococcus aureus [3], 2 µg/mL (≈ 3.36 µM); against Enterococcus faecalis [4] it was 8 µg/mL (≈ 13.4 µM). Moreover, it took 4 µg/mL (≈ 6.72 µM) to inhibit growth in the data set on Bacillus subtilis (MIC). In addition, in the data set with HaCaT [5], the Activity entry was “Non-Toxic”.

For the compound `CN[C@H](CC(C)C)C(=O)N[C@H]1C(=O)N[C@@H](CC(N)=O)C(=O)N[C@H]2C(=O)N[C@H]3C(=O)N[C@H](C(=O)N[C@H](C(=O)O)c4cc(O)cc(O)c4-c4cc3ccc4O)[C@H](O)c3ccc(c(Cl)c3)Oc3cc2cc(c3O[C@@H]2O[C@H](CO)[C@@H](O)[C@H](O)[C@H]2O[C@H]2C[C@](C)(N)[C@H](O)[C@H](C)O2)Oc2ccc(cc2Cl)[C@H]1O` [VANCOMYCIN], the MIC in the data set with Micrococcus luteus was no more than 0.13 µg/mL; against Enterococcus faecalis [4] it was greater than 64 µg/mL; in the data set on Bacillus subtilis it was 0.5 µg/mL (≈ 0.345 µM).

`O=C1O/C(=C\c2cc(Br)c(O)c(Br)c2)C(c2cccs2)=C1C(=O)c1cc(Br)c(O)c(Br)c1`: the MIC against Micrococcus luteus was 8 µg/mL (≈ 11.3 µM); against Enterococcus faecalis [1], 16 µg/mL (≈ 22.7 µM); in the data set on Bacillus cereus, 8 µg/mL (≈ 11.3 µM); in the data set with Staphylococcus aureus [2], 16 µg/mL (≈ 22.7 µM); against Staphylococcus aureus [3], 16 µg/mL (≈ 22.7 µM); against Enterococcus faecalis [4] it was 8 µg/mL (≈ 11.3 µM). Besides, the MIC with Bacillus subtilis stood at 8 µg/mL (≈ 11.3 µM).

For the compound `O=C1O/C(=C\c2cccs2)C(c2ccc(O)c(Br)c2)=C1C(=O)c1cc(Br)c(O)c(Br)c1`, the MIC against Micrococcus luteus is 32 µg/mL (≈ 51 µM); in the data set with Enterococcus faecalis [1] it was 32 µg/mL (≈ 51 µM); with Bacillus cereus, 8 µg/mL (≈ 12.8 µM); against Staphylococcus aureus [2], 32 µg/mL (≈ 51 µM); in the data set on Staphylococcus aureus [3], 8 µg/mL (≈ 12.8 µM); against Enterococcus faecalis [4], 32 µg/mL (≈ 51 µM). In addition, the MIC against Bacillus subtilis was determined as 4 µg/mL (≈ 6.38 µM).

For `O=C1O/C(=C\c2cc(Br)c(O)c(Br)c2)C(c2ccco2)=C1C(=O)c1cc(Br)c(O)c(Br)c1`, the MIC is 16 µg/mL (≈ 23.2 µM) in the data set with Micrococcus luteus; 32 µg/mL (≈ 46.4 µM) against Enterococcus faecalis [1]; 16 µg/mL (≈ 23.2 µM) in the data set on Bacillus cereus; 64 µg/mL (≈ 92.8 µM) against Staphylococcus aureus [2]; 32 µg/mL (≈ 46.4 µM) against Staphylococcus aureus [3]; 64 µg/mL (≈ 92.8 µM) against Enterococcus faecalis [4]. The compound further had an MIC in the data set with Bacillus subtilis of 16 µg/mL (≈ 23.2 µM).

As to GENTAMICIN, the MIC is 0.25 µg/mL in the data set on Micrococcus luteus; 8 µg/mL in the data set on Enterococcus faecalis [1]; 0.25 µg/mL against Bacillus cereus; greater than 64 µg/mL against Staphylococcus aureus [2]; 8 µg/mL against Enterococcus faecalis [4]; 0.25 µg/mL in the data set on Bacillus subtilis.

With `CCCN1C(=O)C(C(=O)c2ccco2)=C(c2ccc(O)c(Br)c2)C1=Cc1ccc(O)c(Br)c1` (mixture of isomers), the MIC with Micrococcus luteus was determined as 16 µg/mL; with Enterococcus faecalis [1], 16 µg/mL; with Bacillus cereus, 4 µg/mL; against Staphylococcus aureus [2], 16 µg/mL; against Staphylococcus aureus [3], 8 µg/mL; in the data set with Enterococcus faecalis [4], 16 µg/mL. The same compound gave an MIC against Bacillus subtilis of 8 µg/mL. In addition, in the data set on HaCaT [6], the Activity was found to be 55.7%.
